Results: patent US9089565B2, “Compositions and methods for causing neurite outgrowth” (MEDICAL RESEARCH COUNCIL, priority 2009, dated 2015)

Tested on: DRG neurons from postnatal day 5 rats
Assay: Neurite outgrowth assay, DRG neurons with myelin-associated inhibitors
Type: cell-based, rat
Conditions: 24 hours
Experimental: FIG. 5. CK2 rescues postnatal rat neurones from inhibition of neurite outgrowth by the myelin-associated inhibitors, Nogo, MAG and OMgp. (A) DRG neurones from postnatal day 5 rats were cultured with or without the Nogo-66 fragment in the presence of the indicated reagents. After 24 hours from addition of the indicated reagents, cells were fixed and ã-tubulin III was detected by immunofluorescence. (B) The number of cells extending neurites of more than 20 μm and total ã-tubulin III positive cell number were counted from images taken in (A). The population of cells extending neurite-like structures of more than 20 μm was indicated as a percentage of total cell number. An average of three experiments is shown. Error bars indicate S. E. between experiments. Data were analysed with student's t test. […] (E) The number of cells extending neurites of more than 20 μm and total ã-tubulin III positive cell number were counted from images taken in (C and D). […] Cells were fixed and ã-tubulin III was detected by immunofluorescence. […] Over-expressed NgR1-Myc was detected by immunofluorescence. (H) The number of Myc-positive cells extending neurites of more than 20 μm and total Myc-positive cell number were counted from images taken in (G). […]

Molecule: Nc1ncnc2c1ncn2[C@@H]1O[C@H](COP(=O)(O)OP(=O)(O)OP(=O)(O)O)[C@@H](O)[C@H]1O [ATP]
- neurite outgrowth in the presence of the Nogo-66 fragment: did not suppress

B1: BDNF: brain-derived neurotrophic factor, member of the neurotrophin nerve growth factor family, purchased from Merck (protein, UniProt P23560 19-247, looked up)
Neurotrophic factor BDNF …: APMKEANIRGQGGLAYPGVRTHGTLESVNGPKAGSRGLTSLADTFEHVIEELLDEDQKVRPNEENNKDADLYTSRVMLSSQVPLEPPLLFLLEEYKNYLDAANMSMRVRRHSDPARRGELSVCDSISEWVTAADKKTAVDMSGGTVTVLEKVPVSKGQLKQYFYETKCNPMGYTKEGCRGIDKRHWNSQCRTTQSYVRALTMDSKKRIGWRFIRIDTSCVCTLTIKRGR
- neurite outgrowth in the presence of the Nogo-66 fragment: fails to block
